Experiments:
Experiment in all cases: relative viability (nuclei count vs DMSO), 5 days (fraction); higher = more cells survive
IA-LM = system: IA-LM
In short: (§1)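 A single step with final 0.05% Triton X-100, 1% formaldehyde and 1 ug/ml Hoechst fixed the cells and stained nuclei 5 days after treatment. Lung cancer cell lines in 1536-well plates had been treated by pin tool the day after seeding with one drug alone or a fixed anchor-drug dose plus five library-drug doses (not always all listed) in √10 steps, and nuclei were counted on 4× images. Relative viability is the ratio of nuclei in treated wells to nuclei in vehicle wells, taken as the median of duplicate plates.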

UMC-11 = system: UMC-11
In short: as §1

EBC-1 = system: EBC-1
In short: as §1

EKVX = system: EKVX
In short: as §1

LCLC-103H = system: LCLC-103H
In short: as §1

NCI-H1299 = system: NCI-H1299
In short: as §1

A549 = system: A549
In short: as §1

HCC-44 = system: HCC-44
In short: as §1

NCI-H1755 = system: NCI-H1755
In short: as §1

NCI-H1703 = system: NCI-H1703
In short: as §1

Calu-6 = system: Calu-6
In short: as §1

HCC-15 = system: HCC-15
In short: as §1

For `CC(=O)O[C@@]12CO[C@@H]1C[C@H](O)[C@@]1(C)C(=O)[C@H](O)C3=C(C)[C@@H](OC(=O)[C@H](O)[C@@H](NC(=O)OC(C)(C)C)c4ccccc4)C[C@@](O)([C@@H](OC(=O)c4ccccc4)[C@H]21)C3(C)C` [Docetaxel] + C[C@@H](Oc1cc(-c2cnn(C3CCNCC3)c2)cnc1N)c1c(Cl)ccc(F)c1Cl [Crizotinib] (partner 1 µM), the relative viability (IA-LM; first compound 0.0002 µM) was 0.395, the relative viability (IA-LM; first compound 0.000632 µM) was 0.145 and the relative viability (IA-LM; first compound 0.002 µM) was 0.0955. The relative viability (IA-LM; first compound 0.006325 µM) was 0.078, the relative viability (IA-LM; first compound 0.02 µM) was 0.0873 and the relative viability (UMC-11; first compound 0.0002 µM) was 0.612. The relative viability (UMC-11; first compound 0.000632 µM) was 0.485, the relative viability (UMC-11; first compound 0.002 µM) was 0.122 and the relative viability (UMC-11; first compound 0.006325 µM) was 0.108. It also gave a relative viability (UMC-11; first compound 0.02 µM) of 0.084, a relative viability (EBC-1; first compound 0.0002 µM) of 0.187 and a relative viability (EBC-1; first compound 0.000632 µM) of 0.146. It also gave a relative viability (EBC-1; first compound 0.002 µM) of 0.167, a relative viability (EBC-1; first compound 0.006325 µM) of 0.163 and a relative viability (EBC-1; first compound 0.02 µM) of 0.151. For the same compound, the relative viability (EKVX; first compound 0.0002 µM) was 0.725, the relative viability (EKVX; first compound 0.000632 µM) was 0.885 and the relative viability (EKVX; first compound 0.002 µM) was 0.432. The relative viability (EKVX; first compound 0.006325 µM) was 0.25, the relative viability (EKVX; first compound 0.02 µM) was 0.145 and the relative viability (LCLC-103H; first compound 0.0002 µM) was 1.19. It also gave a relative viability (LCLC-103H; first compound 0.000632 µM) of 1.04, a relative viability (LCLC-103H; first compound 0.002 µM) of 0.776 and a relative viability (LCLC-103H; first compound 0.006325 µM) of 0.674. For the same compound, the relative viability (LCLC-103H; first compound 0.02 µM) was 0.756, the relative viability (NCI-H1299; first compound 0.0002 µM) was 0.972 and the relative viability (NCI-H1299; first compound 0.000632 µM) was 0.984. For the same compound, the relative viability (NCI-H1299; first compound 0.002 µM) was 0.695, the relative viability (NCI-H1299; first compound 0.006325 µM) was 0.392 and the relative viability (NCI-H1299; first compound 0.02 µM) was 0.305. It also gave a relative viability (A549; first compound 0.0002 µM) of 0.641, a relative viability (A549; first compound 0.000632 µM) of 0.432 and a relative viability (A549; first compound 0.002 µM) of 0.0535. For the same compound, the relative viability (A549; first compound 0.006325 µM) was 0.0545, the relative viability (A549; first compound 0.02 µM) was 0.0485 and the relative viability (HCC-44; first compound 0.0002 µM) was 0.805. It also gave a relative viability (HCC-44; first compound 0.000632 µM) of 0.536, a relative viability (HCC-44; first compound 0.002 µM) of 0.483 and a relative viability (HCC-44; first compound 0.006325 µM) of 0.195. For the same compound, the relative viability (HCC-44; first compound 0.02 µM) was 0.12, the relative viability (NCI-H1755; first compound 0.0002 µM) was 0.833 and the relative viability (NCI-H1755; first compound 0.000632 µM) was 0.535. For the same compound, the relative viability (NCI-H1755; first compound 0.002 µM) was 0.503, the relative viability (NCI-H1755; first compound 0.006325 µM) was 0.382 and the relative viability (NCI-H1755; first compound 0.02 µM) was 0.353. For the same compound, the relative viability (NCI-H1703; first compound 0.0002 µM) was 0.483, the relative viability (NCI-H1703; first compound 0.000632 µM) was 0.379 and the relative viability (NCI-H1703; first compound 0.002 µM) was 0.226. For the same compound, the relative viability (NCI-H1703; first compound 0.006325 µM) was 0.0913, the relative viability (NCI-H1703; first compound 0.02 µM) was 0.133 and the relative viability (Calu-6; first compound 0.0002 µM) was 0.805. It also gave a relative viability (Calu-6; first compound 0.000632 µM) of 0.394, a relative viability (Calu-6; first compound 0.002 µM) of 0.219 and a relative viability (Calu-6; first compound 0.006325 µM) of 0.159. For the same compound, the relative viability (Calu-6; first compound 0.02 µM) was 0.105, the relative viability (HCC-15; first compound 0.0002 µM) was 0.818 and the relative viability (HCC-15; first compound 0.000632 µM) was 0.452. For the same compound, the relative viability (HCC-15; first compound 0.002 µM) was 0.172, the relative viability (HCC-15; first compound 0.006325 µM) was 0.207 and the relative viability (HCC-15; first compound 0.02 µM) was 0.14.

For `Cc1sc2c(c1C)C(c1ccc(Cl)cc1)=N[C@@H](CC(=O)OC(C)(C)C)c1nnc(C)n1-2` [JQ1] + C[C@@H](Oc1cc(-c2cnn(C3CCNCC3)c2)cnc1N)c1c(Cl)ccc(F)c1Cl [Crizotinib] (partner 1 µM), the relative viability (IA-LM; first compound 0.04 µM) was 0.672, the relative viability (IA-LM; first compound 0.1265 µM) was 0.3 and the relative viability (IA-LM; first compound 0.4 µM) was 0.147. For the same compound, the relative viability (IA-LM; first compound 1.265 µM) was 0.101, the relative viability (IA-LM; first compound 4 µM) was 0.108 and the relative viability (UMC-11; first compound 0.04 µM) was 0.501. It also gave a relative viability (UMC-11; first compound 0.1265 µM) of 0.659, a relative viability (UMC-11; first compound 0.4 µM) of 0.345 and a relative viability (UMC-11; first compound 1.265 µM) of 0.0933. The relative viability (UMC-11; first compound 4 µM) was 0.0983, the relative viability (EBC-1; first compound 0.04 µM) was 0.214 and the relative viability (EBC-1; first compound 0.1265 µM) was 0.187. The relative viability (EBC-1; first compound 0.4 µM) was 0.154, the relative viability (EBC-1; first compound 1.265 µM) was 0.105 and the relative viability (EBC-1; first compound 4 µM) was 0.13. The relative viability (EKVX; first compound 0.04 µM) was 0.713, the relative viability (EKVX; first compound 0.1265 µM) was 0.749 and the relative viability (EKVX; first compound 0.4 µM) was 0.938. The relative viability (EKVX; first compound 1.265 µM) was 0.707, the relative viability (EKVX; first compound 4 µM) was 0.489 and the relative viability (LCLC-103H; first compound 0.04 µM) was 1. For the same compound, the relative viability (LCLC-103H; first compound 0.1265 µM) was 0.94, the relative viability (LCLC-103H; first compound 0.4 µM) was 0.847 and the relative viability (LCLC-103H; first compound 1.265 µM) was 0.612. The relative viability (LCLC-103H; first compound 4 µM) was 0.506, the relative viability (NCI-H1299; first compound 0.04 µM) was 0.932 and the relative viability (NCI-H1299; first compound 0.1265 µM) was 0.768. It also gave a relative viability (NCI-H1299; first compound 0.4 µM) of 0.707, a relative viability (NCI-H1299; first compound 1.265 µM) of 0.352 and a relative viability (NCI-H1299; first compound 4 µM) of 0.279. The relative viability (A549; first compound 0.04 µM) was 0.766, the relative viability (A549; first compound 0.1265 µM) was 0.521 and the relative viability (A549; first compound 0.4 µM) was 0.558. For the same compound, the relative viability (A549; first compound 1.265 µM) was 0.233, the relative viability (A549; first compound 4 µM) was 0.125 and the relative viability (HCC-44; first compound 0.04 µM) was 0.822. The relative viability (HCC-44; first compound 0.1265 µM) was 0.623, the relative viability (HCC-44; first compound 0.4 µM) was 0.397 and the relative viability (HCC-44; first compound 1.265 µM) was 0.277. For the same compound, the relative viability (HCC-44; first compound 4 µM) was 0.243, the relative viability (NCI-H1755; first compound 0.04 µM) was 0.899 and the relative viability (NCI-H1755; first compound 0.1265 µM) was 0.854. The relative viability (NCI-H1755; first compound 0.4 µM) was 0.901, the relative viability (NCI-H1755; first compound 1.265 µM) was 0.67 and the relative viability (NCI-H1755; first compound 4 µM) was 0.608. The relative viability (NCI-H1703; first compound 0.04 µM) was 0.611, the relative viability (NCI-H1703; first compound 0.1265 µM) was 0.438 and the relative viability (NCI-H1703; first compound 0.4 µM) was 0.464. The relative viability (NCI-H1703; first compound 1.265 µM) was 0.286, the relative viability (NCI-H1703; first compound 4 µM) was 0.302 and the relative viability (Calu-6; first compound 0.04 µM) was 0.737. For the same compound, the relative viability (Calu-6; first compound 0.1265 µM) was 0.546, the relative viability (Calu-6; first compound 0.4 µM) was 0.62 and the relative viability (Calu-6; first compound 1.265 µM) was 0.342. The relative viability (Calu-6; first compound 4 µM) was 0.183, the relative viability (HCC-15; first compound 0.04 µM) was 0.762 and the relative viability (HCC-15; first compound 0.4 µM) was 0.75. The relative viability (HCC-15; first compound 1.265 µM) was 0.544 and the relative viability (HCC-15; first compound 4 µM) was 0.441.

— the supplement of paper PMC10307832
